From PubChem BioAssay (NCI) come the findings set out here.

Assay in all cases: DTP human tumour cell line panel, 48 h
In test [1] the test system is HCC-2998 colon.
Test [2] has as its system TK-10 renal.
Test [3] has as its system U251 CNS.
Test [4] has as its system MCF7 breast.
For test [5], the system named is MALME-3M melanoma.
Test [6] deals with EKVX NSCLC.
The test system of test [7] is COLO 205 colon.
For test [8], the system named is NCI-H460 lung.
Test [9] relates to HOP-62 NSCLC.
Test [10] concerns RPMI-8226 leukemia.

Values joined by “and” are separate entries in the source; they are usually repeats but may differ in a detail not shown here. Identical values can stand only once.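 Cells were grown in 96-well plates and exposed to each compound for 48 hours at five concentrations; endpoints were interpolated linearly between bracketing concentrations, or set to the highest concentration if not reached. Abbreviation: GI50, concentration required for 50% inhibition of growth. TGI: total growth inhibition.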 Bounds are passed on as bounds.

As a reminder, the GI50 is the concentration at which growth is held to half of that of the control. A word on the TGI: it is the concentration giving total growth inhibition.

For the molecule `[N-]=[N+]=CC(=O)CCC(N)C(=O)O` (stereo unspecified), the GI50 in test [1] is 62.7 µM; in [2], 35.6 µM; in [3] it was 6.59 µM; in test [4], 0.641 µM; in [5], 7.27 µM; in test [6], 3.47 µM. In addition, the GI50 in [7] is 0.812 µM; in test [8], 2.93 µM. The TGI in [1] is greater than 250 µM; in test [2], 244 µM; in test [3], greater than 250 µM; in test [4], greater than 250 µM; in test [5], greater than 250 µM; in test [6], greater than 141 µM. Also, the figures for the TGI in test [7], in [8] and in test [9] were greater than 128 µM, 147 µM and 43.2 µM, respectively.
Regarding `O=c1[nH]c(C2CCCN2)nc2c1oc1ccc(Cl)cc12` (stereo unspecified), the GI50 in test [1] was greater than 100 µM; in [10], greater than 100 µM; in test [2], greater than 100 µM; in test [3], 36.2 µM; in test [4], 80.4 µM; in [5], 46.3 µM. For the same molecule, the GI50 was 26 µM in [7], greater than 100 µM in test [8] and 49.9 µM in test [9]. In addition, the TGI in test [1], in test [10], in test [2], in [3], in test [4] and in test [5] was greater than 100 µM throughout. The TGI in test [7], in [8] and in test [9] was greater than 100 µM in each case.
For the molecule `COc1c2ccoc2nc2c(OC)c(OCC(O)C(C)(C)O)ccc12` (stereo unspecified), the TGI in test [1], in [10], in test [2], in [3], in test [4] and in test [5] was greater than 100 µM each time. Besides, the TGI in [6], in [7] and in [8] was greater than 100 µM throughout.
Take `COc1cc(O)ccc1C(=S)SC`: the TGI in test [10] was 55.6 µM; in test [2], greater than 100 µM; in test [3], greater than 100 µM; in [4], greater than 100 µM; in test [5] it was greater than 100 µM; in [6], 46.3 µM. Besides, the TGI in test [7], in [8] and in test [9] was greater than 100 µM throughout.
As for `CC(C)C[C@@H](N)[C@@H](O)C(=O)N[C@H](C(=O)N[C@H](C(=O)N[C@@H](CC(=O)O)C(=O)O)C(C)C)C(C)C`, the GI50 in [1], in test [2], in [3], in [4], in test [5] and in [6] was greater than 20 µM throughout. The GI50 in test [7], in [8] and in test [9] was greater than 20 µM in each case. Further, the total growth inhibition concentration (TGI) in [1], in test [2], in test [3], in [4], in [5] and in test [6] was greater than 20 µM each time. For the same molecule, the TGI in test [7], in [8] and in test [9] was greater than 20 µM in each case.
As to `COc1cc2c(cc1OCCNC(=O)/C=C1\C[C@H]3C=Nc4cc(OCc5ccccc5)c(OC)cc4C(=O)N3C1)N=C[C@@H]1CCCN1C2=O`, the GI50 in test [10] is 1.18 µM; in test [2], 7.07 µM; in [3], 2.82 µM; in [4], 2.62 µM; in [5] it was 2.2 µM; in test [6] it was 36.8 µM. The values for the GI50 in test [7], in [8] and in test [9] were 14.9 µM, 13.6 µM and 4.27 µM, respectively. Further, the TGI in [10] stood at 2.74 µM; in test [2], 36.7 µM; in test [3], 8.35 µM; in [4] it was 9.2 µM; in test [5], 6.69 µM; in [6] it was 81.6 µM. The figures for the TGI in test [7], in [8] and in test [9] were 68.5 µM, 30.6 µM and 23.6 µM, respectively.
Regarding `Cc1n[nH]c2ccccc2c1=O`, the TGI in test [10], in test [2], in test [3], in test [4], in test [5] and in [6] was greater than 100 µM each time. The TGI in test [7], in test [8] and in test [9] was greater than 100 µM throughout.
Regarding `O=c1c(Cc2ccc3c(c2)OCO3)nnc2sc(-c3cc(F)c(Cl)cc3Cl)nn12`, the GI50 is 30.6 µM in test [10]; 22.6 µM in test [2]; 35.7 µM in [3]; 38.9 µM in test [4]; 24.7 µM in [5]; 22.6 µM in test [7]. The GI50 was 50.8 µM in test [8] and 18.1 µM in test [9]. The TGI was greater than 100 µM in [10]; 65 µM in test [2]; greater than 100 µM in test [3]; greater than 100 µM in test [4]; 85.3 µM in test [5]; 59.2 µM in [7]. Also, the TGI was greater than 100 µM in test [8] and 64.7 µM in test [9].
`O=C1NC(=NCCc2ccc(Cl)cc2)S/C1=C\c1ccc2ncccc2c1`: the GI50 in test [1] is greater than 25 µM; in [10], greater than 23 µM; in test [3] it was 20.8 µM; in test [4], 10.2 µM; in test [5], greater than 25 µM; in test [7] it was 15.3 µM. Also, the figures for the GI50 in [8] and in test [9] were 17.8 µM and 14.3 µM, respectively. Besides, the TGI in [1], in test [10], in test [3], in test [4], in [5] and in test [7] was greater than 25 µM in each case. The TGI in [8] and in [9] was greater than 25 µM throughout.
Consider `OCc1ccc(N(Cc2ccc(F)cc2)Cc2ccc(F)cc2)cc1Cl`, for which the GI50 in test [1] was 14.3 µM; in test [10], 8.44 µM; in test [2], 2.08 µM; in [3], 5.5 µM; in test [4], 3.72 µM; in test [5] it was 18.4 µM. For the same molecule, the GI50 was 11.7 µM in [7], 3.64 µM in [8] and 10.9 µM in test [9]. Moreover, the TGI in test [1] amounted to 30.8 µM; in test [10] it was 30.4 µM; in test [2], 11.2 µM; in [3], 19.4 µM; in test [4] it was 17 µM; in test [5] it was 35.4 µM. The TGI amounted to 24.4 µM in test [7], 17.1 µM in test [8] and 23.2 µM in test [9].
As to `OCC(O)C(O)C(O)C(/C=N\Nc1ncnc2c(Br)cc(Br)cc12)=N/Nc1ncnc2c(Br)cc(Br)cc12` (stereo unspecified), the GI50 in test [10] is 19.6 µM; in test [6] it was 1.88 µM and 4.49 µM; in [9], 2.05 µM and 9.09 µM. Further, the TGI in test [10] is greater than 100 µM; in test [2] it was 28.1 µM and > 100 µM; in [4], 37.4 µM and > 100 µM; in test [5] it was 14.4 µM and > 100 µM; in test [7], 13 µM and 22 µM.
On to `Cn1c(COC(=O)NCCc2ccccn2)nc2c(N3CCOCC3)nc(Cl)nc21`, for which the GI50 was 1.76 µM in [1]; 1.72 µM in [2]; 1.63 µM in test [3]; 0.946 µM in [4]; 1.77 µM in test [5]; 1.7 µM in test [6]. Moreover, the GI50 in test [7] was 1.72 µM; in [8] it was 1.62 µM; in test [9], 1.65 µM. The TGI in [1] was 3.57 µM; in [2], 3.34 µM; in [3], 3.34 µM; in test [4], 2.95 µM; in test [5], 3.38 µM; in [6], 3.7 µM. In addition, the TGI in test [7] was found to be 3.61 µM; in test [8], 3.63 µM; in test [9] it was 4.88 µM.
As for `Oc1ccc(Cl)cc1C=Nc1cnc2ccccc2c1`, the TGI in [10] is 85.6 µM; in [2] it was greater than 100 µM; in [3] it was greater than 70.6 µM; in test [4], greater than 100 µM; in test [5], greater than 100 µM; in test [6], greater than 86 µM. In addition, the TGI in [7], in [8] and in [9] was greater than 100 µM each time.
Turning to `COc1cc(C2CC(c3ccc(Nc4nc(NCCO)nc(NCCO)n4)cc3)=NN2c2cc(Cl)cc(Cl)c2)cc(OC)c1OC` (stereo unspecified), the GI50 in [1] was 2.14 µM; in test [10], 1.15 µM; in [2], 2.01 µM; in [3], 1.25 µM; in test [4] it was 1.26 µM; in test [5], 1.96 µM. The GI50 in [6] is 2.03 µM; in test [7], 2.7 µM; in test [8], 1.77 µM. The TGI was 4.84 µM in [1]; 6.28 µM in test [10]; 4.45 µM in test [2]; 2.81 µM in test [3]; 2.94 µM in test [4]; 3.84 µM in [5]. The values for the TGI in test [6], in test [7] and in [8] were 6.17 µM, 9.29 µM and 3.8 µM, respectively.
